PubChem BioAssay AID248 (DTP/NCI, 2004)
Inconclusive results and toxic doses are left out. No stated cut-off is given here; in the data, active means T/C of 150% or more; inactive means T/C below 125%.

Test system: L1210 leukemia ip in BDF1 mice, survival T/C
Assay: NCI In Vivo Anticancer Drug Screen. Data for tumor model L1210 Leukemia (intraperitoneal) in B6D2F1 (BDF1) mice
Conditions: endpoint: mean survival time, higher = longer survival
Outline: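 Mice bearing the transplanted tumor received compound or vehicle. Survival of the treated group was divided by that of the vehicle-treated control group to give the ratio.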

[1] = dose: 100.0 mg/kg/injection, schedule: Q04DX003 (ip), vehicle: Klucel (hydroxypropylcellulose) (HPC)
[2] = dose: 200.0 mg/kg/injection, schedule: Q04DX003 (ip), vehicle: Klucel (hydroxypropylcellulose) (HPC)
[3] = dose: 400.0 mg/kg/injection, schedule: Q04DX003 (ip), vehicle: Klucel (hydroxypropylcellulose) (HPC)
[4] = dose: 100.0 mg/kg/injection, schedule: Q01DX001 (ip), vehicle: carboxymethylcellulose (CMC)

Measured: T/C

COc1ccc(OC)c(NC(=O)Nc2ccc(N(C)C(C)=O)cc2)c1
inactive: [1] 90 % of control | [2] 87 % of control | [3] 88 % of control

CCCCC(CCC)(CCN)CCCC
inactive: dose: 1.0 mg/kg/injection, schedule: Q01DX009 (ip), vehicle: Klucel (hydroxypropylcellulose) (HPC) 100 % of control | dose: 2.0 mg/kg/injection, schedule: Q01DX009 (ip), vehicle: Klucel (hydroxypropylcellulose) (HPC) 100 % of control | dose: 2.0 mg/kg/injection, schedule: Q04DX003 (ip), vehicle: Klucel (hydroxypropylcellulose) (HPC) 98 % of control | dose: 4.0 mg/kg/injection, schedule: Q01DX009 (ip), vehicle: Klucel (hydroxypropylcellulose) (HPC) 101 % of control | dose: 4.0 mg/kg/injection, schedule: Q04DX003 (ip), vehicle: Klucel (hydroxypropylcellulose) (HPC) 98 % of control | dose: 8.0 mg/kg/injection, schedule: Q01DX009 (ip), vehicle: Klucel (hydroxypropylcellulose) (HPC) 100 % of control | dose: 8.0 mg/kg/injection, schedule: Q04DX003 (ip), vehicle: Klucel (hydroxypropylcellulose) (HPC) 93 % of control | dose: 16.0 mg/kg/injection, schedule: Q04DX003 (ip), vehicle: Klucel (hydroxypropylcellulose) (HPC) 96 % of control | dose: 25.0 mg/kg/injection, schedule: Q01DX001 (ip), vehicle: carboxymethylcellulose (CMC) 95 % of control | [4] 93 % of control

N#Cc1c(NN)n(C2OC(CO)C(O)C2O)c2ncnc(N)c12 (stereo unspecified)
inactive: dose: 25.0 mg/kg/injection, schedule: Q01DX005 (ip), vehicle: saline 107 % of control | dose: 50.0 mg/kg/injection, schedule: Q01DX005 (ip), vehicle: saline 90 % of control | dose: 100.0 mg/kg/injection, schedule: Q01DX005 (ip), vehicle: saline 105 % of control | dose: 200.0 mg/kg/injection, schedule: Q01DX005 (ip), vehicle: saline 96 % of control

O=C(CCl)NCC1(c2ccc(Cl)cc2)SC(CNC(=O)CCl)(c2ccc(Cl)cc2)S1 (stereo unspecified)
inactive: dose: 100.0 mg/kg/injection, schedule: Q01DX009 (ip), vehicle: saline with Tween-80 97 % of control | dose: 200.0 mg/kg/injection, schedule: Q01DX009 (ip), vehicle: saline with Tween-80 92 % of control | dose: 400.0 mg/kg/injection, schedule: Q01DX009 (ip), vehicle: saline with Tween-80 104 % of control

CC(O)c1nc2ccccc2n1C (stereo unspecified)
inactive: dose: 333.0 mg/kg/injection, schedule: Q01DX Z (ip), vehicle: saline 118 % of control | dose: 500.0 mg/kg/injection, schedule: Q01DX Z (ip), vehicle: saline 98 % of control

Clc1ccc(C(Cl)c2ccc(Cl)cc2)cc1
inactive: [1] 105 % of control | [2] 107 % of control | [3] 107 % of control

Nc1nc(SCc2ccncc2)c2[nH]cnc2n1
inactive: dose: 178.0 mg/kg/injection, schedule: Q01DX001 (ip), vehicle: saline 118 % of control

CSc1ccc(NC(=O)c2ccc(C(=O)Nc3ccc(SC)cc3)cc2)cc1
inactive: dose: 100.0 mg/kg/injection, schedule: Q01DX009 (ip), vehicle: Klucel (hydroxypropylcellulose) (HPC) 94 % of control | dose: 200.0 mg/kg/injection, schedule: Q01DX009 (ip), vehicle: Klucel (hydroxypropylcellulose) (HPC) 89 % of control | dose: 400.0 mg/kg/injection, schedule: Q01DX009 (ip), vehicle: Klucel (hydroxypropylcellulose) (HPC) 89 % of control

CC1CCCC1OC(=O)c1ccc([N+](=O)[O-])cc1 (stereo unspecified)
inactive: [4] 104 % of control | dose: 200.0 mg/kg/injection, schedule: Q01DX001 (ip), vehicle: carboxymethylcellulose (CMC) 102 % of control | dose: 400.0 mg/kg/injection, schedule: Q01DX001 (ip), vehicle: carboxymethylcellulose (CMC) 93 % of control

O=C(NCCCCC(NC(=O)OCc1ccccc1)C(=O)NCCCCCCN(CCCCCCNC(=O)C(CCCCNC(=O)OCc1ccccc1)NC(=O)OCc1ccccc1)C(=O)C(CCCCNC(=O)OCc1ccccc1)NC(=O)OCc1ccccc1)OCc1ccccc1 (stereo unspecified)
inactive: dose: 100.0 mg/kg/injection, schedule: Q01DX001 (ip), vehicle: saline 100 % of control | dose: 200.0 mg/kg/injection, schedule: Q01DX001 (ip), vehicle: saline 94 % of control | dose: 400.0 mg/kg/injection, schedule: Q01DX001 (ip), vehicle: saline 94 % of control

O=C(CSc1ccccc1)NCc1cnccn1
inactive: dose: 100.0 mg/kg/injection, schedule: Q01DX009 (ip), vehicle: saline 103 % of control | dose: 100.0 mg/kg/injection, schedule: Q04DX003 (ip), vehicle: saline 92 % of control | dose: 200.0 mg/kg/injection, schedule: Q01DX009 (ip), vehicle: saline 102 % of control | dose: 200.0 mg/kg/injection, schedule: Q04DX003 (ip), vehicle: saline 105 % of control | dose: 400.0 mg/kg/injection, schedule: Q04DX003 (ip), vehicle: saline 105 % of control

CC(=O)[O][Hg][c]1c(C)c(C)c(C)c(C)c1C
inactive: dose: 12.5 mg/kg/injection, schedule: Q04DX003 (ip), vehicle: saline with Tween-80 87 % of control | dose: 25.0 mg/kg/injection, schedule: Q04DX003 (ip), vehicle: saline with Tween-80 87 % of control | dose: 50.0 mg/kg/injection, schedule: Q04DX003 (ip), vehicle: saline with Tween-80 87 % of control

Cn1c(=O)c2c(nc(OC3CCCC3)n2C)n(C)c1=O
inactive: dose: 50.0 mg/kg/injection, schedule: Q01DX001 (ip), vehicle: other 98 % of control | dose: 100.0 mg/kg/injection, schedule: Q01DX001 (ip), vehicle: other 98 % of control | dose: 200.0 mg/kg/injection, schedule: Q01DX001 (ip), vehicle: other 87 % of control
